Results taken from ChEMBL document CHEMBL5104175, “Scaffold hopping from indoles to indazoles yields dual MCL-1/BCL-2 inhibitors from MCL-1 selective leads” (RSC Med Chem, 2022).

Assays:
[1] = biological target: Induced myeloid leukemia cell differentiation protein Mcl-1 (Homo sapiens, UniProt Q07820); assay: Inhibition of MCL-1 (unknown origin) by fluorescence polarization competition assay
[2] = biological target: Apoptosis regulator Bcl-2 (Homo sapiens, UniProt P10415); assay: Inhibition of BCL-2 (unknown origin) by fluorescence polarization competition assay
Apoptosis regulator Bcl-2, sequence (P10415 whole entry): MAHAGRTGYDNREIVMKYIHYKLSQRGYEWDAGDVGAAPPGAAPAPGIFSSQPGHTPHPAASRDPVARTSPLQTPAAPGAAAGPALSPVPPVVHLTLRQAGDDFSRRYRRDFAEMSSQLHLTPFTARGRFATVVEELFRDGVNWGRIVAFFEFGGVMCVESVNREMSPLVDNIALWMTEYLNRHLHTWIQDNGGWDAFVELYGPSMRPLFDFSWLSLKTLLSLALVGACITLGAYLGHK

[3] = biological target: Bcl-2-like protein 1 (Homo sapiens, UniProt Q07817); assay: Inhibition of BCL-xL (unknown origin) by fluorescence polarization competition assay
Bcl-2-like protein 1, sequence (Q07817 whole entry): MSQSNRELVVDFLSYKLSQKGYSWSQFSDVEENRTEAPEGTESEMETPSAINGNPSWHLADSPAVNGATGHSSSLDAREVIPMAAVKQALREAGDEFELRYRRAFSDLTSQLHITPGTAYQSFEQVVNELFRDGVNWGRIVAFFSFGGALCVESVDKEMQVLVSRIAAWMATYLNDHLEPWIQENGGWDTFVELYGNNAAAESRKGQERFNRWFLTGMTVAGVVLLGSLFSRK

Induced myeloid leukemia cell differentiation protein Mcl-1, sequence (Q07820 whole entry): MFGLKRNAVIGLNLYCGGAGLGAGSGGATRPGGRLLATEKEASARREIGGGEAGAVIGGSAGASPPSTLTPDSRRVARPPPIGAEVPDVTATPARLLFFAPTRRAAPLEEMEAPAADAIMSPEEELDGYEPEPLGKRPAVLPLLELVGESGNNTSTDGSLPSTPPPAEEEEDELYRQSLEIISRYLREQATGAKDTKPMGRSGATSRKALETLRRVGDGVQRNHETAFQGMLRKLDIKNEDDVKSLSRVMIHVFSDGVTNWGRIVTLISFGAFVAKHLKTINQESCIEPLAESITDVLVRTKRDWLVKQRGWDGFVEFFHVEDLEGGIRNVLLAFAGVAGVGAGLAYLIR

| Structure (SMILES) | Ki [1] | Ki [2] | Ki [3] |
| --- | --- | --- | --- |
| Cc1cc(Oc2ccc(Cn3nc4ccc(Cl)cc4c3C(=O)NS(=O)(=O)c3ccc([N+](=O)[O-])c(NCCc4cccnc4)c3)cc2)cc(C)c1Cl | 1.46 µM | 0.46 µM | > 10 µM |
| Cc1cc(Oc2ccc(Cn3nc4ccc(Cl)cc4c3C(=O)NS(=O)(=O)c3ccc([N+](=O)[O-])c(NCCc4ccncc4)c3)cc2)cc(C)c1Cl | 1.42 µM | 0.77 µM | – |
| Cc1cc(Oc2ccc(Cn3nc4ccc(Cl)cc4c3C(=O)NS(=O)(=O)c3ccc(NCCc4cccnc4)c([N+](=O)[O-])c3)cc2)cc(C)c1Cl | 1.46 µM | 0.46 µM | > 10 µM |
| Cc1cc(Oc2ccc(Cn3nc4ccc(Cl)cc4c3C(=O)NS(=O)(=O)c3ccc(NCCN4CCOCC4)c([N+](=O)[O-])c3)cc2)cc(C)c1Cl | 1.61 µM | 0.42 µM | – |
| Cc1cc(Oc2ccc(Cn3nc(C(=O)O)c4cc(Cl)ccc43)cc2)cc(C)c1Cl | 2.28 µM | – | – |
| Cc1cc(Oc2ccc(Cn3nc4ccc(Cl)cc4c3C(=O)NS(=O)(=O)c3ccc(NCc4ccn(C)n4)c([N+](=O)[O-])c3)cc2)cc(C)c1Cl | 1.57 µM | 0.6 µM | 3.45 µM |
| Cc1cc(Oc2ccc(Cn3nc4ccc(Cl)cc4c3C(=O)NS(=O)(=O)c3ccc(NCc4cccnc4)c([N+](=O)[O-])c3)cc2)cc(C)c1Cl | 1.12 µM | 1.18 µM | 4.42 µM |
| Cc1cc(Oc2ccc(Cn3nc4ccc(Cl)cc4c3C(=O)NS(=O)(=O)c3ccc(NCc4ccncc4)c([N+](=O)[O-])c3)cc2)cc(C)c1Cl | 1.65 µM | 1.52 µM | > 10 µM |
| Cc1cc(Oc2ccc(Cn3nc4ccc(Cl)cc4c3C(=O)NS(=O)(=O)c3ccc([N+](=O)[O-])c(NCc4ccco4)c3)cc2)cc(C)c1Cl | 1.68 µM | 0.96 µM | > 10 µM |
| Cc1cc(Oc2ccc(Cn3nc4ccc(Cl)cc4c3C(=O)NS(=O)(=O)c3ccc([N+](=O)[O-])c(NCCc4ccco4)c3)cc2)cc(C)c1Cl | 2.16 µM | 0.84 µM | > 10 µM |
| Cc1cc(Oc2ccc(Cn3nc4ccc(Cl)cc4c3C(=O)NS(=O)(=O)c3ccc(NCc4ccco4)c([N+](=O)[O-])c3)cc2)cc(C)c1Cl | 1.3 µM | 0.57 µM | > 10 µM |
| Cc1cc(Oc2ccc(Cn3nc4ccc(Cl)cc4c3C(=O)NS(=O)(=O)c3ccc(Cl)cc3)cc2)cc(C)c1Cl | 1.2 µM | 0.51 µM | > 10 µM |

Further lines, results first:

| Ki [1] | Ki [2] | Ki [3] | Structure (SMILES) |
| --- | --- | --- | --- |
| 2.3 µM | 0.9 µM | 6.66 µM | Cc1cc(Oc2ccc(Cn3nc4ccc(Cl)cc4c3C(=O)NS(=O)(=O)c3ccc([N+](=O)[O-])c(N4CCOCC4)c3)cc2)cc(C)c1Cl |
| 1.28 µM | 0.62 µM | 3.4 µM | Cc1cc(Oc2ccc(Cn3nc4ccc(Cl)cc4c3C(=O)NS(=O)(=O)c3ccc(NCCc4ccco4)c([N+](=O)[O-])c3)cc2)cc(C)c1Cl |
| 1.95 µM | 0.71 µM | 7.41 µM | Cc1cc(Oc2ccc(Cn3nc4ccc(Cl)cc4c3C(=O)NS(=O)(=O)c3ccc([N+](=O)[O-])c(NCc4ccn(C)n4)c3)cc2)cc(C)c1Cl |
| > 10 µM | – | – | Cc1cc(OCCCn2nc3ccc(Cl)cc3c2C(=O)O)cc(C)c1Cl |
| > 10 µM | – | – | Cc1cc(OCCCn2c(C(=O)O)nc3ccccc32)cc(C)c1Cl |
| 1.32 µM | 0.53 µM | 7.99 µM | Cc1cc(Oc2ccc(Cn3nc4ccc(Cl)cc4c3C(=O)NS(=O)(=O)c3ccc(N4CCOCC4)c([N+](=O)[O-])c3)cc2)cc(C)c1Cl |
| > 10 µM | – | – | Cc1cc(OCCn2nc3ccc(Cl)cc3c2C(=O)O)cc(C)c1Cl |
| 1.36 µM | 0.71 µM | > 10 µM | Cc1cc(Oc2ccc(Cn3nc4ccc(Cl)cc4c3C(=O)NS(=O)(=O)c3ccc([N+](=O)[O-])c(NCc4ccncc4)c3)cc2)cc(C)c1Cl |
| 1.77 µM | 0.66 µM | > 10 µM | Cc1cc(Oc2ccc(Cn3nc4ccc(Cl)cc4c3C(=O)NS(=O)(=O)c3ccc(NCCc4ccncc4)c([N+](=O)[O-])c3)cc2)cc(C)c1Cl |
| 1 µM | 1.22 µM | > 10 µM | Cc1cc(Oc2ccc(Cn3nc4ccc(Cl)cc4c3C(=O)NS(=O)(=O)c3ccc([N+](=O)[O-])c(NCc4cccnc4)c3)cc2)cc(C)c1Cl |
